According to patent US20220259215A1, “PYRROLOPYRAZOLE DERIVATIVES, PREPARATION METHOD THEREOF AND APPLICATION THEREOF IN MEDICINE” (SHANGHAI MEDICILON INC., priority 2019, published 2022):

The molecules below were run against T1, H+/K+ATPase (Oryctolagus cuniculus, UniProt P27112) (assay: Determination of compounds' inhibition of H+/K+ATPase enzyme activity (malachite green, OD 620 nm)). Settings: H+/K+ATPase extracted from rabbit stomach mucosa; 500 μM ATP, pH 6.5, 37° C.
T1 construct: The stomach tissue of the rabbit was separated; from tissue; host or cells: rabbit stomach (fundus mucosa), membrane fraction obtained by differential and Ficoll centrifugation
T1 sequence (P27112 whole entry): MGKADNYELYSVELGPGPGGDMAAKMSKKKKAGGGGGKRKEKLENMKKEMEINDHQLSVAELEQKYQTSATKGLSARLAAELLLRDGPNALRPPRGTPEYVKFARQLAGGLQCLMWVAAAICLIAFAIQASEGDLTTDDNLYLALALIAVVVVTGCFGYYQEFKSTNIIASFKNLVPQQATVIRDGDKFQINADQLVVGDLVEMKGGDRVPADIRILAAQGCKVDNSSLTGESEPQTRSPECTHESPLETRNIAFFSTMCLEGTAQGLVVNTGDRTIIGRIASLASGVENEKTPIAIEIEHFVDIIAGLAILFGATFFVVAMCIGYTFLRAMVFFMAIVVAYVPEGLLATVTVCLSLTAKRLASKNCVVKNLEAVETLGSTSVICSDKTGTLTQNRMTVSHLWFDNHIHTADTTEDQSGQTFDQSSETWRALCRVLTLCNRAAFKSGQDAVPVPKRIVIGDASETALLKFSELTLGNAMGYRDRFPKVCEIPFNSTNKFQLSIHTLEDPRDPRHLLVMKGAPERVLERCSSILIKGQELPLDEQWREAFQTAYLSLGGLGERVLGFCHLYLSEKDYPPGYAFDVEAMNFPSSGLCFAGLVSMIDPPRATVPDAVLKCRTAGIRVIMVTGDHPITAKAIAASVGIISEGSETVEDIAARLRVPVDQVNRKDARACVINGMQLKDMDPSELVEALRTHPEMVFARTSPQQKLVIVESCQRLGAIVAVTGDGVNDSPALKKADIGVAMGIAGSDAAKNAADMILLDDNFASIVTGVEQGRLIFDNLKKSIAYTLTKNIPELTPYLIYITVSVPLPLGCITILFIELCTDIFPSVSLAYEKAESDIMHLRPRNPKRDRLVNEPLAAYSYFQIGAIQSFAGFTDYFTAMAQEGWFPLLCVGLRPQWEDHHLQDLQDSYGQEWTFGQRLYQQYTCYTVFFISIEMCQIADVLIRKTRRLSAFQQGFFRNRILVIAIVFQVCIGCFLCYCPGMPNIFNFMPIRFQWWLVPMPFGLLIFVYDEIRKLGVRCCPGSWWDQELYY
T1 sequence (P18597 whole entry partner): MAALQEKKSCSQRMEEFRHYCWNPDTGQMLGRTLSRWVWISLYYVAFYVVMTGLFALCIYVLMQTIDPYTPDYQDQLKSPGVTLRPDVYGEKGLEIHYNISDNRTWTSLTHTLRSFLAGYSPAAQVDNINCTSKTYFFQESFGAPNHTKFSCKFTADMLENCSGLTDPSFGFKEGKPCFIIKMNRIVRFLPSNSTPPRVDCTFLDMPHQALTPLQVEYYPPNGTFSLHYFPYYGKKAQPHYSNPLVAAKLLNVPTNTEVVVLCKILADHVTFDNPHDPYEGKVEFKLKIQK
Type: biochemical
Text: Test Example: Determination of Compounds' Inhibition of H+/K+ATPase Enzyme Activity
The following experiment is used to determine the inhibitory effect of the compound of the present invention on the H+/K+ATPase enzyme activity.
1. Experimental materials
Plate reader: SpectraMax M5(MD).
Malachite Green (Sigma Aldrich, 213020-25G).
Ammonium molybdate (Sigma Aldrich, 277908-20G).
ATP (Sigma Aldrich, A1852-1VL).
Enzyme working solution: titrating the enzyme, diluting the enzyme with buffer solution 1, and taking 5 μl of the diluted solution into 50 μl reaction system.
ATP solution: 100 mM ATP was diluted to 5 mM with no K+ buffer, and 5 μl of the diluted solution was added to the 50 μl reaction system, that is, the final concentration of ATP was 500 μM.
MLG color development liquid: 0.12% MLG, 7.5% ammonium molybdate, 11% Tween-20 was mixed as 100:25:2, and adding 15 μl of the mixture into each well during detection.
Buffer 1: 50 mM Tris-HCl pH 6.5, 5 mM magnesium chloride (magnesium chloride), 10 μM valinomycin (valinomycin).
Buffer 2: 50 mM Tris-HCl pH 6.5, 5 mM magnesium chloride (magnesium chloride), 10 μM valinomycin (valinomycin), 20 mM KCl.
Homogenization buffer: 10 mmol/L Tris-HCl, pH 6.8, 0.25M sucrose (sucrose), 1 mmol/LEDTA.
7.5% Ficoll layering solution: homogenization buffer+7.5% (W/W) (Ficoll 400).
3.1.H^+/K^+ATPase enzyme extraction
(1) The stomach tissue of the rabbit was separated, and the blood was washed with tap water, food residue.
(2) The fundus portion was thoroughly washed with pre-cooled NaCl solution to remove surface mucus.
(3) The stripped mucosa was filled into a sample bag or a 50 ml centrifuge tube, and quickly freezing in a liquid nitrogen tank.
(4) The tissue was removed, minced with surgical scissors, and a pre-cooled homogenization buffer (4 ml/g tissue) was added and homogenized in a tissue homogenizer for 2 to 10 minutes.
(5) After homogenization, if there were larger tissue particles, they could be removed by centrifugation (600 g, 10 min), and then the supernatant was transfered to a clean centrifuge tube. After centrifugation at 20000 g for 30 minutes, then the supernatant was transferred to a clean centrifuge tube at 100000 g for 90 minutes, and the precipitate was collected.
(6) Resuspending the precipitate with homogenization buffer, blowing uniformly, adding 7.5% Ficoll layering solution at equal ratio, centrifuging at 100000 g for 90 minutes, and collecting the precipitate.
(7) Resuspending the precipitate with homogenization buffer, blowing uniformly, and the protein concentration was measured by Bradford. Freezing in tubes at −80° C. for later use.
3.2. H+/K+ATPase activity experiment
(1) Adding 35 μl of reaction buffer to each experimental well, and then adding 35 μl of buffer 1.
(2) Adding 5 μl buffer 1 containing 10% DMSO to the whole enzyme and buffer well.
(3) Adding 5 μl of 10× compound working solution to the compound well and mixing well.
(4) Adding 5 μl of buffer 1 to the buffer well.
(5) Adding 5 μl of 10× enzyme working solution to the remaining wells, mixing and incubating at 37° C. for 30 minutes.
(6) Adding 5 μl of 10× ATP working solution to all experimental wells, mixing and incubating at 37° C. for 20 min.
(7) Adding 15 μl MLG chromogenic solution to all experimental wells, and uniformly mixing and incubating at room temperature for 5-30 min.
(8) The reading number of 620 nm was detected by an M5 instrument.
The inhibition rate is calculated with the following formula:
Inhibition rate (IC50)=[OD (sample well)-OD (full enzyme well containing potassium chloride)]/[(OD (full enzyme well containing potassium chloride)−(OD (full enzyme well without potassium chloride)]×100%
An IC50 of 415 nM was found for COc1ccc(Nc2cccc(Cn3nc4c(c3-c3ccccc3F)CN(C)C4)c2)c(Cl)n1 [Example 1, 2-chloro-N-(3-((3-(2-fluorophenyl)-5-methyl-5,6-dihydropyrrolo[3,4-c]pyrazol-2(4H)-yl)methyl)phenyl)-6-methoxypyridin-3-amine] in this work. An IC50 of 669 nM was found for Cc1ccc(Nc2cccc(Cn3nc4c(c3-c3ccccc3F)CN(C)C4)c2)c(Cl)n1 [Example 2, 2-chloro-N-(3-((3-(2-fluorophenyl)-5-methyl-5,6-dihydropyrrolo[3,4-c]pyrazol-2(4H)-yl)methyl)phenyl)-6-methylpyridin-3-amine] in this work. An IC50 of 966 nM was found for CN1Cc2nn(Cc3cccc(Nc4ccnc(Cl)n4)c3)c(-c3ccccc3F)c2C1 [Example 3, 2-chloro-N-(3-((3-(2-fluorophenyl)-5-methyl-5,6-dihydropyrrolo[3,4-c]pyrazol-2(4H)-yl)methyl)phenyl) pyrimidin-4-amine] in this work. An IC50 of 729 nM was found for CN1Cc2nn(Cc3cccc(Nc4cc[nH]c(=O)n4)c3)c(-c3ccccc3F)c2C1 [Example 4, 4-((3-((3-(2-fluorophenyl)-5-methyl-5,6-dihydropyrrolo[3,4-c]pyrazol-2(4H)-yl)methyl)phenyl)amino)pyrimidin-2-(1H)-one] in this work. An IC50 of 279 nM was found for CNc1nccc(Nc2cccc(Cn3nc4c(c3-c3ccccc3F)CN(C)C4)c2)n1 [Example 5, N4-(3-((3-(2-fluorophenyl)-5-methyl-5,6-dihydropyrrolo[3,4-c]pyrazol-2(4H)-yl)methyl)phenyl)-N2-methylpyrimidine-2,4-diamine] in this work. An IC50 of 2850 nM was found for CN1Cc2nn(Cc3cccc(Nc4ccnc(N5CCOCC5)n4)c3)c(-c3ccccc3F)c2C1 [Example 6, N-(3-((3-(2-fluorophenyl)-5-methyl-5,6-dihydropyrrolo[3,4-c]pyrazol-2(4H)-yl)methyl)phenyl)-2-morpholinopyrimidin-4-amine] in this work. An IC50 of 325 nM was found for CN1Cc2nn(Cc3cccc(Nc4cncc(Cl)n4)c3)c(-c3ccccc3F)c2C1 [Example 7, 6-chloro-N-(3-((3-(2-fluorophenyl)-5-methyl-5,6-dihydropyrrolo[3,4-c]pyrazol-2(4H)-yl)methyl)phenyl)pyrazin-2-amine] in this work.
